Literature values, collected in US11975103B2, “Compositions of midodrine and methods of using the same” (XENAMED CORP., priority 2016, dated 2024).

Tests used:
[1] = test system: patients with neurogenic orthostatic hypotension
[2] = after oral administration of an immediate release tablet

Row | solubility in water | half-life [2] | time to peak plasma levels [2] | SMILES | standing systolic blood pressure [1]
1 | soluble in water | – | – | COc1ccc(OC)c(C(O)CNC(=O)CN)c1.Cl (racemic) [Midodrine hydrochloride, (±)-2-amino-N-[2-(2,5-dimethoxyphenyl)-2-hydroxyethyl]acetamide monohydrochloride] | significantly increases
2 | – | approximately 25 minutes | about 30 minutes | COc1ccc(OC)c(C(O)CNC(=O)CN)c1 (stereo not shown) [midodrine] | –
